# According to publication PMC5626019 (Nature, 2017):
# No end group written: not given here.
# Columns and labels:
# DQB1*05:01 = conditions: competition binding to purified MHC
# DQB1*04:02 = conditions: competition binding to purified MHC
# PBMC = test: IFNγ and IL-5 dual ELISPOT after 14 days culture; format: cell-based, human
# [1] = biological target: purified HLA A*11:01 molecules (Homo sapiens, UniProt P04439, A114D/D185E/E176A/F33Y/L180Q/S129P/T187R); test: HLA class I competition binding assay; conditions: for binding, in words: purified HLA A*11:01 in vitro
# [2] = tested on: 26 common HLA class II alleles; test: HLA class II competition binding, panel of common alleles; parameters: species or system human
substance,measurement,setting,value
DNEAYEMPSEEGYQD,"binding, in words",DQB1*05:01,strongly bound
EMPSEEGYQDYEPEA,"binding, in words",DQB1*05:01,low affinity
same,"binding, in words",DQB1*04:02,low affinity
GKTKEGVLYVGSKTK,"T cell response, in words","PBMC; PBMC stimulated 14 days, peptides 5 μg/ml",apparent Class II restricted IL-5 and IFNγ response
GVLYVGSKTK,"binding, in words",[1],bound poorly
MPVDPDNEAYEMPSE,"binding, in words",[2],bound several alleles with lower affinity
VLYVGSKTK,IC50,[1],161 nM
VLYVGSKTKK,"binding, in words",[1],bound poorly
phosphorylated aaS129 aa116MPVDPDNEAYEMPSEaa130: phosphorylated aaS129 epitope,IL-5 responses in PD compared with HC,"PBMC; p=0.02, Fisher's exact test, 300 SFC threshold",markedly higher
